Where two headings read alike, the source gives them in different places.
Assays:
[1] = Apparent pKa of mRNA-LNP by TNS binding assay; assay type: physicochemical; settings: apparent pKa of mRNA-LNP made with the ionizable lipid
Description: The apparent pKa of the mRNA-LNPs prepared according to Example 27 was determined by analysis using 6-(p-toluidino)-2-naphthalenesulfonic acid sodium salt (TNS; Sigma-Aldrich, USA).
However, as the pH decreases, the proportion of positively charged ionizable lipids increases, allowing electrostatic interactions with TNS. […] When the pH of the solution increases and the ionizable lipids become neutralized, TNS can no longer engage in electrostatic interactions. Consequently, TNS loses its lipophilic character, exits the hydrophobic domain, and its fluorescence is quenched. Based on this principle, the pKa of LNPs can be measured by plotting the change in TNS fluorescence intensity in response to variations in the surrounding pH as an S-shaped curve, and calculating the […] of the inflection point. […]
Specifically, a master buffer was prepared containing 10 mM sodium phosphate, 10 mM sodium borate, 10 mM sodium citrate, and 150 mM sodium chloride (NaCl). […] After gently mixing the contents of each well, the fluorescence intensity was measured using a multiplate reader (Cary Eclipse, Agilent Technologies, USA) at an excitation wavelength of λex 330 nm and an emission wavelength of λem 435 nm.

[2] = Size, polydispersity index and surface charge of mRNA-LNP (Malvern Zetasizer Nano ZS90); assay type: physicochemical; settings: for PDI / size (nm) Number: mRNA-LNP made with the ionizable lipid at its optimal formulation (Table 2); for size (nm) Number: diluted with PBS to 1 μg/mL mRNA; for Zeta (mV): surface charge of mRNA-LNP made with the ionizable lipid at its optimal formulation (Table 2)
Procedure, shortened: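 Dynamic/electrophoretic light scattering of LNPs diluted in PBS to a final mRNA concentration of 1 μg/mL. Readouts were particle size, PDI and surface charge.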

[3] = mRNA encapsulation efficiency (Quant-IT RiboGreen RNA assay); assay type: physicochemical; settings: mRNA encapsulation efficiency of mRNA-LNP made with the ionizable lipid; average of two measurements
Procedure, shortened: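 LNP samples read with RiboGreen reagent in TE buffer with or without 2% Triton X-100 (37 °C, 10 min) to release encapsulated mRNA. Fluorescence at λex 480/λem 520 nm; EE % calculated from the two readings, averaged over two independent measurements.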

[4] = tested on: female C57BL/6 mice; assay: Protein expression efficiency of fLuc mRNA-LNPs after intramuscular injection (IVIS whole-body luminescence); assay type: in vivo; settings: for Total flux 1 hour / Total flux 3 hours / Total flux 6 hours / Total flux 48 hours / Total flux 72 hours / Total flux: fLuc mRNA-LNP, intramuscular injection, luminescence at injection site, mice; for Total flux 1 hour: 1 hour after administration; for Total flux 3 hours: 3 hours after administration; for Total flux 6 hours: 6 hours after administration; for Total flux 48 hours: 48 hours after administration; for Total flux 72 hours: 72 hours after administration; for Total flux: after administration
Procedure, shortened: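 Female C57BL/6 mice (6-10 weeks, n≥4) got intramuscular fLuc mRNA-LNPs at 0.1-0.5 mg/kg mRNA. Injection-site luminescence was imaged under isoflurane at 1-72 h, 10 min after i.p. D-luciferin (200 μL, 15 mg/mL). Expression at 3 h was taken relative to MC3 or SM-102 LNPs.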

[5] = tested on: CCL2 mRNA level in HEK-293T cells
[6] = tested on: CCL3 mRNA level in HEK-293T cells
[7] = tested on: IL-1β mRNA level in HEK-293T cells
[8] = tested on: IL-6 mRNA level in HEK-293T cells
[9] = In vivo toxicity evaluation, serum biochemical analysis (AST, ALT, ALP, BUN, creatinine); settings: serum of mice after injection of fLuc mRNA-LNP, FIG. 9
Description: Toxicity induced by fLuc mRNA-LNPs prepared using various ionizable lipids according to the method of Example 27 was evaluated through serum biochemical analysis following […]. injection into mice.
Specifically, 50-100 μL of serum was collected each mouse at 24 and 48 hours after intravenous injection using the retro-orbital bleeding method. The serum biochemical analysis was performed using Hitachi 7150 Chemistry Analyzer, measuring indicators of liver function—aspartate aminotransferase (AST), alanine aminotransferase (ALT), alkaline phosphatase (ALP)- and indicators of kidney function—blood urea nitrogen (BUN) and creatinine.

[10] = Stability of mRNA-LNPs according to storage temperature and duration; assay type: physicochemical; settings: for Normalized EE % D-7 / PDI D-7 / Size (nm) D-7: day 7; for Normalized EE % D-30 / PDI D-30 / Size (nm) D-30: day 30
Description: Stability of fLuc mRNA-LNPs produced using various ionizable lipids according to the method of Example 27, was assessed by storing the LNPs at 4° C. and 25° C. At 1, 7, and 30 days post-manufacture, the size, PDI, and encapsulation efficiency (EE) of each mRNA-LNPs samples were measured using the methods described in Experimental Examples 2 and 3.

[11] = fLuc mRNA-LNP stored at 4° C., day 1
[12] = fLuc mRNA-LNP stored at 25° C., day 1

Structure (SMILES): CCCCCCCCCCCOC(=O)CCCCCN(CCO)CCCCCCCC(=O)OC(CCCCCCCC)CCCCCCCC [SM-102, reference compound]
- PKa [1]: 6.48
- PDI [2]: 0.140
- size (nm) Number [2]: 101 nm
- Zeta (mV) [2]: −2.99 mV
- EE (%) [3]: 94%
- Total flux 1 hour [4]: 1.48E+07
- Total flux 3 hours [4]: 1.12E+08
- Total flux 6 hours [4]: 1.82E+08
- Total flux 48 hours [4]: 7.43E+06
- Total flux 72 hours [4]: 2.86E+06
- Total flux [4]: 2.27E+07
- CCL2 Average [5]: 0.83
- CCL3 Average [6]: 2.41
- IL-1β Average [7]: 1.14
- IL-6 Average [8]: 1.82

Structure (SMILES): CCCCCCCCCCCOC(=O)CCCCCN(CCCCCCCC(=O)OC(CCCCCCCC)CCCCCCCC)CC(O)CCCCNC(=O)c1cc[nH]c1 (stereo not shown) [Compound 17, Heptadecan-9-yl 8-((2-hydroxy-6-(1H-pyrrole-3-carboxamido)hexyl)(6-oxo-6-(undecyloxy)hexyl)amino)octanoate]
- PDI [2]: 0.100
- size (nm) Number [2]: 151 nm
- Zeta (mV) [2]: −6.80 mV
- EE (%) [3]: 94%
- protein expression compared to the control group (SM-102) ([4]; 3 hours post intramuscular injection, in words): significantly higher protein expression
- Total flux 1 hour [4]: 6.53E+07
- Total flux 3 hours [4]: 2.23E+08
- Total flux 6 hours [4]: 1.02E+08
- Total flux 48 hours [4]: 4.80E+06
- Total flux 72 hours [4]: 4.21E+06
- Total flux [4]: 1.00E+07
- Fold increase in total flux at 3 h, MC3 ([4]; relative to control LNP formulated with MC3, 3 hours after intramuscular injection): 18.09
- Fold increase in total flux at 3 h, SM-102 ([4]; relative to control LNP formulated with SM-102, 3 hours after intramuscular injection): 1.99
- ALP level compared to control groups (PBS and SM-102) [9]: similar
- AST level compared to control groups (PBS and SM-102) [9]: lower
- BUN level compared to control groups (PBS and SM-102) [9]: similar
- Normalized EE % D-1 [10, 11]: 94.0%
- PDI D-1 [10, 11]: 0.100
- Size (nm) D-1 [10, 11]: 151.2 nm
- Normalized EE % D-7 ([10]; fLuc mRNA-LNP stored at 4° C.): 91.3%
- PDI D-7 ([10]; fLuc mRNA-LNP stored at 4° C.): 0.098
- Size (nm) D-7 ([10]; fLuc mRNA-LNP stored at 4° C.): 133.8 nm
- Normalized EE % D-30 ([10]; fLuc mRNA-LNP stored at 4° C.): 89.8%
- PDI D-30 ([10]; fLuc mRNA-LNP stored at 4° C.): 0.081
- Size (nm) D-30 ([10]; fLuc mRNA-LNP stored at 4° C.): 130.7 nm
- Normalized EE % D-1 [10, 12]: 94.0%
- Size (nm) D-1 [10, 12]: 151.2 nm
- Normalized EE % D-7 ([10]; fLuc mRNA-LNP stored at 25° C.): 90.2%
- PDI D-7 ([10]; fLuc mRNA-LNP stored at 25° C.): 0.114
- Size (nm) D-7 ([10]; fLuc mRNA-LNP stored at 25° C.): 134.2 nm
- Normalized EE % D-30 ([10]; fLuc mRNA-LNP stored at 25° C.): 88.6%
- PDI D-30 ([10]; fLuc mRNA-LNP stored at 25° C.): 0.128
- Size (nm) D-30 ([10]; fLuc mRNA-LNP stored at 25° C.): 128.1 nm
- CCL2 Average ([5]; human): 0.65
- CCL3 Average ([6]; human): 1.10
- IL-1β Average ([7]; human): 0.70
- IL-6 Average ([8]; human): 0.94

— US20260184669A1, “LIPID COMPOUND AND COMPOSITION FOR DELIVERY OF ACTIVE SUBSTANCE” (KOREA RESEARCH INSTIUTE OF BIOSCIENCE AND BIOTECHNOLOGY, priority 2022, published 2026)
